Test results from patent US8449923B2, “Methods for inhibiting sensory nerves by topically administering strontium-containing compositions to keratinized skin” (Cosmederm Bioscience, Inc., priority 1994, dated 2013).
Where two headings read alike, the source gives them in different places.

Experiments:
[1] = tested on: skin irritation induced by lactic acid (face); assay: Lactic acid irritation trial, pretreatment test (anti-irritant applied 15 minutes before irritant); type: in vivo, human; details: pretreatment tests; for Percent Inhibition (average inhibition of cumulative irritation): cation salt 250 mM, lactic acid irritant; for Percent Inhibition: representative subject panels, 250 mM, vehicle VIS DIFFERENCE
Procedure: (§1) The majority of the trials were conducted using lactic acid as the skin irritant, and proceeded generally as follows.
(§2) Tests were conducted in multiple panels of from 7 to 12 subjects each. Subjects were instructed not to wear any makeup or facial lotions to the clinic the day of testing. The subjects were instructed to wash their face with Ivory bar soap in the clinic prior to application of test solutions.
(§3) Lactic acid skin-irritant compositions were formulated in an appropriate vehicle prior to application to the skin of the subjects.
(§4) Test anti-irritant formulations containing measured amounts of strontium salts (concentration 250 mM) were applied either (a) 15 minutes prior to application to the skin of the skin-irritant (“pretreatment test”) or (B) simultaneously with the application of the skin-irritant (“time zero test”). […] Controls were performed by applying corresponding formulation(s) (pretreatment and/or skin-irritant composition) with an equimolar amount of sodium chloride to a contralateral portion of the subject's skin. Typically, the test materials were applied to the face of the subject.
(§5) All test solutions (including controls) were applied in a double blind, randomized fashion using the prepared solutions as previously placed in coded vial designated for use on either the right or left side of the face (or other test area). Solutions were typically applied using a cotton swab (six strokes) or sponge applicator to the face and cheek area extending from the midline of the nose over to the center of the cheek and from the cheek bone down to the jaw line. Application was made first to the right side and then to the left.
(§6) Sensory assessment scores were recorded for each treated side of the subject's skin every minute for 15 minutes or until three consecutive scores of “zero” irritation were obtained. The following scaled scores were used for sensory assessment:
(§7) Symptom scores were cumulated, separately for the cation-treated and control-treated areas, for each individual and also for the panel as a whole. Individuals not reporting a cumulative score of at least “7” on at least one treatment area were excluded (in a blinded fashion) from further analysis in order to ascertain anti-irritant efficacy with respect to the more severely-susceptible test subjects. From a practical standpoint, scores of “0” and “1” on the above scale would be considered highly desirable for a commercial product because such a response would likely not result in a consumer ceasing to use a product. Some consumers, in fact, might view the “barely perceptible” sensations represented by a score of 1 to be an indication that a facial treatment skin care product (especially an exfoliant) was working as advertised. By contrast, irritation scores of “2”, “3” and “4” would likely often result in a consumer never purchasing the product again.

[2] = tested on: skin irritation induced by lactic acid (face); assay: Lactic acid irritation trial, time zero test (anti-irritant applied simultaneously with irritant); type: in vivo, human; details: for Percent Inhibition (average inhibition of cumulative irritation) / Percent Inhibition: time zero tests; for Percent Inhibition (average inhibition of cumulative irritation): cation salt 250 mM, lactic acid irritant; for Percent Inhibition: representative subject panels, vehicle 10% EtOH
Procedure: as §1, §2, §3, §4, §5, §6, §7

[3] = tested on: skin irritation induced by lactic acid
Procedure: Additional studies of anti-irritant activity using varying concentrations of strontium cations were conducted in order to assess the dose-response behavior of the present formulations. The lactic acid irritation protocol described above was used, in which the anti-irritant cation component was strontium nitrate (31-500 mM).

[4] = tested on: irritation induced by capsaicin; details: 250 mM; capsaicin challenge; pretreatment
Source text: The test compounds of the invention were formulated in Elizabeth Arden “Visible Difference Refining Toner”, with the Toner mixed with equimolar sodium chloride serving as the control. The test solutions (and control) were provided in coded vials for application to either the right or left arms. A template (1.5 in.×4.0 in.) was placed on each forearm to mark the challenge area. The pre-treatment solutions containing the anti-irritant cation of the invention were applied to extend 1 inch beyond the marked challenge area in all directions and were allowed to dry for 5 minutes. 0.5 ml of 0.15% capsaicin cream or a swab moistened with capsaicin solution was thereafter applied to each arm by the clinical technician, who rubbed in the cream using gloved fingers. Application and scoring of test and control formulations was performed sequentially for each arm. Scoring was recorded every minute starting at 5 minutes post-application for 10 minutes and then every 5 minutes for 15 minutes (30 minutes total) for the cream, and every minute starting immediately for 15 minutes for the solution. Assessment was made using the irritation scale described above for the lactic acid test, and a simultaneous visual assessment of erythema was made by the monitoring technician.

| Compound | Percent Inhibition (average inhibition of cumulative irritation) [1] | Percent Inhibition [1] | Percent Inhibition (average inhibition of cumulative irritation) [2] | Percent Inhibition ([2]; 250 mM) | overall efficacy in one panel (FIGS. 1-4) ([2]; 250 mM, time zero test, one panel) | Percent Inhibition (cumulative irritation) ([3]; concentration 31 mM) | Percent Inhibition (cumulative irritation) ([3]; concentration 62 mM) | Percent Inhibition (cumulative irritation) ([3]; concentration 125 mM) | Percent Inhibition (cumulative irritation) ([3]; concentration 250 mM) | Percent Inhibition (cumulative irritation) ([3]; concentration 500 mM) | overall efficacy in one representative panel (FIGS. 5-8) [4] |
| --- | --- | --- | --- | --- | --- | --- | --- | --- | --- | --- | --- |
| CC(=O)[O-].CC(=O)[O-].[Sr+2] [Strontium acetate] | 46% | 46% | – | – | – | – | – | – | – | – | – |
| [Cl-].[Cl-].[Sr+2] [Strontium chloride] | 25% | 20% | 60% | 58% | – | – | – | – | – | – | – |
| O=[N+]([O-])[O-].O=[N+]([O-])[O-].[Sr+2] [Strontium nitrate] | 50% | 56% | 65% | 64% | the overall efficacy of the subject formulation is clear | 77% | 32% | 42% | 72% | 82% | the overall efficacy of the subject formulation is evident |
